The values below come from publication PMC6126659, “Structural basis for light control of cell development revealed by crystal structures of a myxobacterial phytochrome” (IUCrJ, 2018).

Assay type in all cases: binding
Experiment [1] deals with T1, SaBphP1-PCM (PAS-GAF-PHY) (Allostigmatella aurantiaca, UniProt Q097N3, T289H).
T1 construct: gene STIAU_3396; photosensory core module PAS-GAF-PHY, residues 1-516, pET28c(+), E. coli BL21(DE3) co-expressing heme oxygenase; dimer; histidine kinase domain absent
T1 sequence (Q097N3 entry or part of it T289H): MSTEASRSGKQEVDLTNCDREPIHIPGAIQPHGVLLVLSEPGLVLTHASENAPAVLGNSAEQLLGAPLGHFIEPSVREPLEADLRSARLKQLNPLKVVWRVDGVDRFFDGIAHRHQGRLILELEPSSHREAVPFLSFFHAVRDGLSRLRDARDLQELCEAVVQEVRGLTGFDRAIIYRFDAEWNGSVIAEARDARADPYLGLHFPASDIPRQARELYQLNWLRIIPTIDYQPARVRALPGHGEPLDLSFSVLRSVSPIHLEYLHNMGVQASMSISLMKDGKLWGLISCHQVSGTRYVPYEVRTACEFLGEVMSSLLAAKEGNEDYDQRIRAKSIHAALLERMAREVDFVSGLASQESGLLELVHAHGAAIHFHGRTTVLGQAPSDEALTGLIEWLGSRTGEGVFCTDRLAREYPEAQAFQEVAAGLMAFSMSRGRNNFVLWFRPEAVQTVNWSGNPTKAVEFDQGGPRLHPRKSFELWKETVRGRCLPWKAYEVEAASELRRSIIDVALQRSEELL
Nature of the experiment: X-ray crystallography ([…] K, […] A; XFEL […] K, […] A). To be noted: covalent, Cys18; dark-adapted Pr state; pH 6.2.

For experiment [2], the target named is T2, SaBphP1-PCM (PAS-GAF-PHY) (Allostigmatella aurantiaca, UniProt Q097N3, Y262F/T289H).
T2 construct: gene STIAU_3396; photosensory core module PAS-GAF-PHY, residues 1-516, pET28c(+), E. coli BL21(DE3) co-expressing heme oxygenase; dimer; histidine kinase domain absent
T2 sequence (Q097N3 entry or part of it Y262F/T289H): as the sequence (Q097N3 entry or part of it T289H) above, with Y262F counted along it
Nature of the experiment: UV-vis absorption spectroscopy of bilin-bound protein. To be noted: covalent; dark / 700 / 750 nm illumination, room temperature.

Experiment [3] deals with T3, SaBphP1-PCM (PAS-GAF-PHY) (Allostigmatella aurantiaca, UniProt Q097N3, D208T/T289H).
T3 construct: gene STIAU_3396; photosensory core module PAS-GAF-PHY, residues 1-516, pET28c(+), E. coli BL21(DE3) co-expressing heme oxygenase; dimer; histidine kinase domain absent
T3 sequence (Q097N3 entry or part of it D208T/T289H): as the sequence (Q097N3 entry or part of it T289H) above, with D208T counted along it
The experiment is described as above. To be noted: covalent; 740 / 700 nm illumination, room temperature.

Experiment [4] deals with T4, SaBphP1-CBD (PAS-GAF) (Allostigmatella aurantiaca, UniProt Q097N3).
T4 construct: gene STIAU_3396; crystallographic dimer
T4 sequence (Q097N3 entry or part of it): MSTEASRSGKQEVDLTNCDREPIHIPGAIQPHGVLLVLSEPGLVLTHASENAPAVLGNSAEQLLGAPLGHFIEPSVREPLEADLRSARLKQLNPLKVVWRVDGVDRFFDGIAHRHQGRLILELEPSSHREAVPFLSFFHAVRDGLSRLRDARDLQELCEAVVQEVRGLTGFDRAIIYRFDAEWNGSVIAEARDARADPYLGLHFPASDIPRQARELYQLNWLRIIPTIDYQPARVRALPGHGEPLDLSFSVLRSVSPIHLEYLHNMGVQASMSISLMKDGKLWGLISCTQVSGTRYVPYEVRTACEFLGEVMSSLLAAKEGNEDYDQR
Nature of the experiment: X-ray crystallography ([…] K, […] A). The conditions noted are these: covalent, Cys18; dark-adapted Pr state; pH 8.5.

For experiment [5], the target named is T5, SaBphP1-PCM (PAS-GAF-PHY) (Allostigmatella aurantiaca, UniProt Q097N3).
T5 construct: gene STIAU_3396; photosensory core module PAS-GAF-PHY, residues 1-516, pET28c(+), E. coli BL21(DE3) co-expressing heme oxygenase; dimer; histidine kinase domain absent
T5 sequence (Q097N3 entry or part of it): as the sequence (Q097N3 entry or part of it T289H) above, with H289T counted along it
The experiment in a line: X-ray crystallography ([…] K, […] A). To be noted: covalent, Cys18; dark-adapted Pr state; pH 6.2.

SMILES strings stand for the structures.

Regarding `C=CC1=C(C)C(=Cc2[nH]c(C=C3N=C(C=C4NC(=O)C(C)=C4C=C)C(C)=C3CCC(=O)O)c(CCC(=O)O)c2C)NC1=O` [biliverdin], in experiment [1], the “X-ray crystallography (100 K, 2.65 A; XFEL 293 K, 3.15 A)” value is given as “the BV A ring tilts with the covalent bond to the Cys18 S atom”. For the same molecule, the “UV-vis absorption spectroscopy of bilin-bound protein” value in experiment [2] is recorded as “the dark-adapted spectrum of the Y262F T289H double mutant”; in experiment [3], “The mutation of Asp208 to threonine (D208T) abolishes the formation of a stable E-configuration”. In addition, the “X-ray crystallography (100 K, 2.25 A)” value in experiment [4] was “The BV chromophore is bound to Cys18 close to the N-terminus”; in experiment [5], “electron density that appeared in the chromophore binding pocket was interpreted by a biliverdin linked to Cys18”.
